How the values were obtained:
[1] = test system: mice; test: Acute toxicity test, oral administration (LD50), mice; format: in vivo
Method: (§1) Acute and subacute (chronic) toxicity tests were performed using SD rats and mice which has received 3-oxygermylpropionic acid represented by Formula I (hereinafter referred to Compound a) and the above-mentioned primary composition (hereinafter called Composition b).
(§2) For experimentation, a group of 8-10 animals were used.
(§3) Oral administration (no significant
(§4) difference between Compound -a and […]

[2] = test system: SD rats and mice; test: Acute toxicity test, comparison and general symptoms; format: in vivo
Method: as §1, §2

[3] = test system: mice with streptozosin-induced diabetes; test: Concentration of glucose in the blood of mice with STZ-induced diabetes; format: in vivo, AKR/J1 mouse; conditions: rejection rate of 5%
Method: (§5) Continuous 5-day administration of streptozocin (STZ) to an AKR/J1 line mice, that ia an inbred mice with a spontaneous symptom of leukemia, can cause it to take a disease similar to human Type I diabetes (dependent upon insulin). Tests were performed for the purpose of going into influence Compound a and Composition b have on such a mice with streptozosin-induced diabetes.
(§6) Streptozocin (STZ) was continuously administrated to the abdominal cavity of a (masculine) mouse belonging to AKR/J1 at a dose of 40 mg/kg for 5 days to induce an increase in the concentration of glucose in the blood and a decrease in the amount of insulin in the pancreas.
(§7) With Compound a dissolved in a phosphate buffer solution with pH 7.4, the concentration of glucose in the blood was measured at 7 days, 14 days and 21 days from STZ dosing, using a GOD-PAP kit (made by Boehringer Mannheim) based on the glucose oxidase process for measurement. In addition, the amount of insulin in the pancreas, extracted by the acid-ethanol process, was assayed with a radio immuno assay kit (made by Pharmacia Aktiebolag) based on an immunoassay process making use of a competitive reaction by ^125 I-labeled insulin (see Soeldner, JS & Slone, D, "Diabetes", Vol. 14, pp. 771-779, 1985).
(§8) A similar mouse was caused to develop STZ-induced diabetes in a similar manner as referred to in Test Example 1.
(§9) A solution of Compound a in a phosphate buffer with pH 7.4 was continuously administered to the abdominal cavity of the animal at 5 mg/kg over 7 days from STZ dosing.
(§10) At 7 days, 14 days and 21 days from STZ dosing, the concentration of glucose in the blood and the amount of insulin in the pancreas were measured in similar manners as mentioned in Test Example 1.
(§11) A solution of Compound a in a phosphate buffer with pH 7.4 was continuously administered to the abdominal cavity of the animal at 5 mg/kg 15 days from the 7th day after STZ dosing.

[4] = Japanese Patent Kokai Publication No. Sho 61-161123; cited from earlier work
[5] = test system: SD rats; test: Acute toxicity test, oral administration (LD50), rats; format: in vivo
Method: as §1, §2, §3, §4

[6] = test system: Langerhans' islands; test: Degree of cellular infiltration in the Langerhans' islands of mice with STZ-induced diabetes; format: in vivo, AKR/J1 mouse; conditions: for Degrees of pancreatitis, 0 (0%) / Degrees of pancreatitis, I (0-25%) / Degrees of pancreatitis, II (25-50%) / Degrees of pancreatitis, III (50-100%) / Incidence of pancreatitis (I-III): STZ + a, at 21 days; for Incidence of pancreatitis (I-III): STZ + buffer 68
Method: as §5
Similar mice were caused to develop STZ-induced diabetes in a similar manner as described in Test Example 1.
A solution of Compound a in a similar phosphate buffer with pH 7.4 as used in Test Example 1 was continuously administrated at a rejection rate of 5% to the abdominal cavities according to similar dosing schemes as applied in Test Examples 1, 2 and 3.
At 21 days from STZ dosing, the degree of cellular infiltration in the Langerhans' islands were assayed under an optical microscope.

[7] = test system: mice with streptozosin-induced diabetes; test: Amount of insulin in the pancreas of mice with STZ-induced diabetes; format: in vivo, AKR/J1 mouse; conditions: rejection rate of 5%
Method: as §5, §6, §7, §8, §9, §10, §11

[8] = test system: SD male rats; test: Subacute toxicity test, oral, over 3 months; format: in vivo
Method: as §1, §2
Over 3 months, Compound a and Composition b were orally administered to two groups of SD male rats at doses of 256, 380, 640, 1300, 1600 and 4000 mg/kg/day to determined which dose to have no toxic influence at all and which dose to induce positive poisoning.

## 3-oxygermylpropionic acid [Compound a]
[1]; female
  LD50: ≥ 5,800 mg/kg
[1]; male
  LD50: ≥ 5,600 mg/kg
[2]; in vivo
  general symptoms: general symptoms of appeasement, diarrhea, vomiting and typhlectasis
[2]; oral, mice and rats
  difference in acute toxicity between Compound a and Composition b: no significant difference
[3]; Test Example 1, 21 days from dosing, FIG. 1(a)
  concentration of glucose in the blood (increased by STZ): significant improvements
[3]; Test Example 2, 5 mg/kg to the abdominal cavity over 7 days from STZ dosing, 21 days from dosing, FIG. 2(a)
  concentration of glucose in the blood (increased by STZ): significant improvements
[3]; Test Example 3, 5 mg/kg to the abdominal cavity 15 days from the 7th day after STZ dosing, 21 days from dosing, FIG. 3(a)
  concentration of glucose in the blood (increased by STZ): significant improvements
[4]
  immunity-accommodative actions: immunity-accommodative actions
[5]; female
  LD50: ≥ 7,050 mg/kg
[5]; male
  LD50: ≥ 7,700 mg/kg
[6]; 1-7 days
  Degrees of pancreatitis, 0 (0%): 70%
  Degrees of pancreatitis, I (0-25%): 23%
  Degrees of pancreatitis, II (25-50%): 4%
  Degrees of pancreatitis, III (50-100%): 3%
  Incidence of pancreatitis (I-III): 30%
[6]; 1-21 days (first line)
  Degrees of pancreatitis, 0 (0%): 70%
  Degrees of pancreatitis, I (0-25%): 25%
  Degrees of pancreatitis, II (25-50%): 4%
  Degrees of pancreatitis, III (50-100%): 1%
  Incidence of pancreatitis (I-III): 30%
[6]; third line, 1-21 days
  Degrees of pancreatitis, 0 (0%): 68%
  Degrees of pancreatitis, I (0-25%): 30%
  Degrees of pancreatitis, II (25-50%): 1%
  Degrees of pancreatitis, III (50-100%): 1%
  Incidence of pancreatitis (I-III): 32%
[6]; Test Example 4, 21 days from dosing
  infiltrated cells in the Langerhans' islands (increased by STZ dosing): successfully decreased the infiltrated cells
[7]; Test Example 1, 21 days from dosing, FIG. 1(b)
  amount of insulin in the pancreas (decreased by STZ): significant improvements
[7]; Test Example 2, 5 mg/kg to the abdominal cavity over 7 days from STZ dosing, 21 days from dosing, FIG. 2(b)
  amount of insulin in the pancreas (decreased by STZ): significant improvements
[7]; Test Example 3, 5 mg/kg to the abdominal cavity 15 days from the 7th day after STZ dosing, 21 days from dosing
  amount of insulin in the pancreas (decreased by STZ): significant improvements
[8]; SD male rats, oral, 3 months, daily
  dose inducing positive poisoning: 1600 mg/kg
[8]; rat, in vivo
  reversibility of toxic symptoms without drug treatment: Toxic symptoms then disappeared
[8]; rat, in vivo, po, 131400 min
  dose with no toxic influence whatsoever: 256 mg/kg

From patent publication US5180739A, “Use of 3-oxygermylpropionic acid to treat and prevent diabetes-dependent type of autoimmune diseases” (Sanwa Kagaku Kenkyusho Co., Ltd., priority 1990, dated 1993)
